What was measured:
[1] = system: Aiolos and Ikaros; test: Aiolos and Ikaros degradation by immunoblotting in MM.1S cells; format: cell-based, human
Description: To this end, the MM.1S cell line was cultured in an RPMI medium (Corning, MD, USA) supplemented with 10% fetal bovine serum (Corning, MD, USA), 100 U/ml of penicillin (Corning, MD, USA), and 100 μg/ml of streptomycin (Corning, MD, USA) at 37° C. in a 5% CO2 incubator. […] The cells were disrupted by adding a RIPA buffer containing a protease inhibitor cocktail (Thermo Fisher Scientific) and centrifuged at 14,000 rpm for 15 minutes at 4° C. to obtain a cell extract. Equal amounts of the cell extract were loaded, and proteins were separated through SDS-PAGE and then transferred to a PVDF membrane. The protein-transferred membrane was blocked using skim milk, incubated with a primary antibody for 3 hours at room temperature, and then incubated with an HRP-conjugated secondary antibody for 1 hour at room temperature. The resulting product was washed with TBS-T three times between steps. Detection was performed using a chemoluminescence reagent (Thermo Fisher Scientific), and confirmed using Chemidoc (iBright CL1500, Invitrogen, CA, USA). Aiolos (#15103), Ikaros (#9034) and GAPDH (#2118S) antibodies used as primary antibodies and a secondary antibody were purchased from Cell Signaling Technology (Danvers, MA, USA).
Additionally, the expression of Aiolos and Ikaros, mediated by 3-MP, was confirmed over time. […]

[2] = system: iNOS and COX-2; test: iNOS and COX-2 expression in LPS-stimulated RAW264.7 cells (immunoblotting); format: cell-based, mouse; details: RAW264.7 cells, 3.33, 10 or 30 μM, 60 ng/ml LPS, 24 hours
Description: To confirm an oxidative stress suppression effect, the expression levels of iNOS and COX-2 were confirmed.
To this end, the RAW264.7 cell line, which is a mouse macrophage cell line, was purchased from the Korea Cell Line Bank (KCLB, Korea) and used, and cultured in a DMEM medium (Corning, MD, USA) supplemented with 10% fetal bovine serum (Corning, MD, USA), 100 U/ml of penicillin (Corning, MD, USA), and 100 μg/ml of streptomycin (Corning, MD, USA) at 37° C. in a 5% CO2 incubator.
After 1 hour, the cells were stimulated by treatment with 60 ng/ml of LPS, and further cultured for 24 hours. The cells were disrupted by adding a RIPA buffer containing a protease inhibitor cocktail (Thermo Fisher Scientific) and centrifuged at 14,000 rpm for 15 minutes at 4° C. to obtain a cell extract. Equal amounts of the cell extract were loaded, and proteins were separated through SDS-PAGE and then transferred to a PVDF film. The protein-transferred membrane was blocked using skim milk, incubated with a primary antibody for 3 hours at room temperature, and then incubated with an HRP-conjugated secondary antibody for 1 hour at room temperature. The resulting product was washed with TBS-T three times between steps. […]

[3] = system: iNOS and COX-2; test: iNOS and COX-2 mRNA expression in LPS-stimulated BV-2 cells (real-time PCR); format: cell-based, mouse; details: BV-2 cells, 3.33, 10 or 30 μM, 1 μg/mL LPS, 6 hours
Description: Finally, to determine the mRNA expression levels of iNOS and COX-2, BV-2 was seeded in a 6-well plate (Corning, MD, USA) at 5×10^5 cells/well, and cultured using a DMEM medium (Corning, MD, USA) containing 10% fetal bovine serum (Corning, MD, USA) and 100 U/ml of penicillin/streptomycin (Corning, MD, USA) at 37° C. in a 5% CO2 incubator for one day for stabilization. […] 1 μg/mL of LPS (Sigma, USA) was added to all experimental groups excluding the non-inflammation-induced group and allowed to react at 37° C. in a 5% CO2 incubator for 6 hours.
The drug-treated BV-2 underwent RNA prep according to the kit manual using an RNA prep kit (Monarch Total RNA Miniprep kit, NEB, UK), and the concentration was measured using a nanophotometer (NP80, Implen, Germany). […]
The expression level of each oxidative stress-associated gene in the synthesized cDNA was analyzed and compared using Real-Time PCR (StepOne™ Bioscience, USA) equipment. […] The CT value for the gene of each sample obtained through real-time PCR was normalized by the value of the internal control gene (GAPDH) of each sample, the expression level was estimated inversely by 2ΔΔCT calculation, and the resulting value of each group was quantified and expressed as a percentage relative to the LPS-only treatment group.

[4] = system: mouse model with Parkinson's disease induced by MPTP administration; test: Pillar test in MPTP-induced Parkinson's disease mouse model; format: in vivo; details: MPTP mice, oral
Description: To cause the disease, mice in the G2, G3, G4, and G5 groups were administered MPTP dissolved in saline via an intraperitoneal route at 2-hour intervals four times a day (20 mg/kg/time), while the G1 group received the same amount of saline.
Using a wooden pillar (length: 80 cm, diameter: 0.8˜1 cm) placed vertically on the cage floor, mice were trained to turn around from the top of the pillar in the opposite direction and descend to the bottom three times a day on days 2-3 of the test. On day 4 of the test, the same test was performed three times, and the time it took to change direction from the top and descend.

With Nc1cccc2c1C(=S)N(C1CCC(=O)NC1=O)C2=O (stereo not drawn) [3-MP, 3-thiopomalidomide] the “expression of Aiolos and Ikaros over time” value ([1]; 10 μM, 1, 4, 8, 12 or 24 hours) was “does not reduce the expression of Aiolos and Ikaros”, the “expression of Aiolos and Ikaros” value ([1]; 0.000128-10 μM, 4 hours) was “does not reduce the expression of Aiolos and Ikaros” and the “expression of iNOS and COX-2 (protein)” value [2] was “inhibit the expression of iNOS and COX-2”. The “mRNA expression of oxidative stress-associated gene (iNOS, COX-2)” value [3] was “effectively inhibit the mRNA expression of an oxidative stress-associated gene”, the pillar descent time ([4]; 90 mg/kg) was “recovered to a level similar to that of the vehicle administration group” and the pillar descent time ([4]; all doses (10, 30, 90 mg/kg/day), versus MPTP group) was “reduced to a statistically significant level”.
